Assay results from article PMC5750217 (Nature Communications, 2018).

Assays:
ASCT2 = biological target: T1, ASCT2 (Homo sapiens, UniProt Q15758); assay: Two electrode voltage clamp, substrate-activated anion current in oocytes expressing ASCT2; type: cell-based
T1 sequence (Q15758 1-541): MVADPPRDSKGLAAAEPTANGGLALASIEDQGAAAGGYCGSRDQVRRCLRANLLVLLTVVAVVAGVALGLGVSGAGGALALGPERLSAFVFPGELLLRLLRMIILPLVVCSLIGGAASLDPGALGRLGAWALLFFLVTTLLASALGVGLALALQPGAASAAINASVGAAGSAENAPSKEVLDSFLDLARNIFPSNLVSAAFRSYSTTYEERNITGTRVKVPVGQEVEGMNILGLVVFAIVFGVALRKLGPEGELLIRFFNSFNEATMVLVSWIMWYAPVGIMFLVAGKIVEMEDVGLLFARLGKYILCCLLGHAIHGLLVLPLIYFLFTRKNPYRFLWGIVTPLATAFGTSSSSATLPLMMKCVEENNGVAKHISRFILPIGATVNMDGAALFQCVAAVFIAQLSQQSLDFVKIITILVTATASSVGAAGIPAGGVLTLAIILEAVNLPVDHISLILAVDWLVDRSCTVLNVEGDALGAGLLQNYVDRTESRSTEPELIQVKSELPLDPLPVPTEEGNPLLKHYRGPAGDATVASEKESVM
Experimental: All chemicals were obtained from Sigma unless otherwise stated. Stage V oocytes were harvested from female Xenopus laevis (frogs) which were obtained from Nasco (Fort Alkinson, USA). Frogs were anaesthetised with 6.5 mM tricaine neutralised with 7.14 mM sodium bicarbonate. After making an incision in the abdomen of the frog, ovarian sacs were removed and stored in OR-2 buffer (82.5 mM NaCl, 2 mM KCl, 1 mM MgCl2, 5 mM hemisodium HEPES, pH 7.5). This surgical procedure follows a protocol (#2016/970) approved by the University of Sydney Animal Ethics Committee under the Australian Code of Practice for the Care and Use of Animals for Scientific Purposes. […]
After 2–4 days of microinjection, current recordings were made using the two electrode voltage clamp technique with a Geneclamp 500 amplifier (Axon Instruments, Foster City, CA) interfaced with a MacLab 2e chart recorder (ADI Instruments, Sydney, Australia) using the chart software, and a Digidata 1322A (Axon Instruments) controlled by an IBM-compatible computer using the pClamp software (version 10, Molecular Devices, Union City, CA). […] Current–voltage relationships were calculated by subtracting steady state current measurements in the absence of substrate from corresponding current measurements in the presence of substrate. […]

[1] = biological target: T2, A1-T458S/T459C (mutant ASCT1) (Homo sapiens, UniProt P43007, T458S/T459C); assay: Radiolabelled uptake in oocytes expressing A1-T458S/T459C; type: cell-based; conditions: 10 µM L-[3H]substrate, 10 min, room temperature
T2 construct: expressed in transfected cells; host or cells: Xenopus laevis oocytes (cRNA injection)
T2 sequence (P43007 1-532 T458S/T459C): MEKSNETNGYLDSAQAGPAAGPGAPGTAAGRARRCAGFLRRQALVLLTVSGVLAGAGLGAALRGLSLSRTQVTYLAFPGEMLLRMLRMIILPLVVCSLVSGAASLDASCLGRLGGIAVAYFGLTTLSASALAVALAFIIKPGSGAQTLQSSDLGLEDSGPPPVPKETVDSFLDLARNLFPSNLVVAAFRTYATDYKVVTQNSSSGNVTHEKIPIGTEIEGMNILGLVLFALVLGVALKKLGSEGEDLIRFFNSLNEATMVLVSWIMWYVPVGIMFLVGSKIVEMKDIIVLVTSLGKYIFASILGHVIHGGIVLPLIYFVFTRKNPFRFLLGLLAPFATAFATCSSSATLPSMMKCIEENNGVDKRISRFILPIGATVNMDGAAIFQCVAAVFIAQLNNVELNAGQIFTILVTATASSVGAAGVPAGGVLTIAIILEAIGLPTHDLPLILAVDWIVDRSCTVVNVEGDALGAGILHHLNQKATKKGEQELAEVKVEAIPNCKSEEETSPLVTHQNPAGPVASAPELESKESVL
Experimental: Uptake of L-[^3H]amino acids (PerkinElmer Life Sciences) was measured in oocytes expressing wild-type and mutant ASCT1, and uninjected oocytes. Five oocytes were incubated in Cl^−-containing buffer with 10 µM L-[^3H]amino acids at room temperature. After 10 min, uptake was terminated by three rapid washes in ice-cold Cl^−-containing buffer followed by lysis in 50 mM NaOH and 1% SDS. L-[^3H]amino acids were measured by scintillation counting using a Trilux beta counter (PerkinElmer Life Sciences).

| Structure (SMILES) | GPNA % inhibition of L-serine activated current (ASCT2; GPNA co-applied with EC50 of L-serine, 300 µM GPNA / 1 mM GPNA (Table 1 footnote)) | IC50 (ASCT2; co-applied with EC50 of L-serine, read-out: IC50 for inhibition of L-serine activated current) | Radiolabelled substrate uptake into oocytes (in words) [1] |
| --- | --- | --- | --- |
| N[C@@H](CCC(=O)Nc1ccc([N+](=O)[O-])cc1)C(=O)O [GPNA, glutamyl-p-nitroanilide] | 90 ± 5% | 90 ± 20 µM | – |
| NC(=O)CC[C@H](N)C(=O)O [L-glutamine] | – | – | robust accumulation |
| N[C@@H](CO)C(=O)O [L-serine] | – | – | robust accumulation |
